This passage reports inhibition results from ChEMBL document CHEMBL3612021, “Structure-kinetics relationships of Capadenoson derivatives as adenosine A1 receptor agonists” (Eur J Med Chem, 2015).

The target of this assay is T1, Adenosine receptor A1 (Homo sapiens) (UniProt P30542).
T1 sequence (whole entry): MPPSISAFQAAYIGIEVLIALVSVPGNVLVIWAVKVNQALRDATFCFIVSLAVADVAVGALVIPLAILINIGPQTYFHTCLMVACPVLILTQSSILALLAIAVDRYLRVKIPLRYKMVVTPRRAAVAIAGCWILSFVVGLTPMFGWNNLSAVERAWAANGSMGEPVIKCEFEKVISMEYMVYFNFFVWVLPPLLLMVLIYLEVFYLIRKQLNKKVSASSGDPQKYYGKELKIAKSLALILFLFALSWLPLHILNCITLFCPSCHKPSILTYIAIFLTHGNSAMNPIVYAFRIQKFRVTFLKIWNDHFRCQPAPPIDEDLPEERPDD
The assay is described as follows: Displacement of [3H]DPCPX from human adenosine A1 receptor expressed in CHO cell membranes at 1 uM by competition association assay. (Displacement assays read how much labelled ligand stays bound in the presence of the test substance.)
Take `N#Cc1c(N)nc(SCc2coc(-c3cccc(F)c3)n2)nc1-c1ccc2c(c1)OCO2`: the inhibition (as a rule, the drop in the measured response relative to a control, in per cent) is above 80%.
As for `COc1ccc(-c2c(C#N)c(N)nc(SCc3coc(-c4ccc(F)cc4)n3)c2C#N)cc1`, the figure is above 80%.
Next, `CC(=O)Nc1ccc(-c2nc(SCc3cccc(CCC(=O)N4CCN(CCN5CCCC5)CC4)n3)nc(N)c2C#N)cc1`: below 80%; `N#Cc1c(N)nc(SCc2csc(-c3ccc(Cl)c(Cl)c3)n2)nc1-c1ccc2c(c1)OCO2`: above 80%; `N#Cc1c(NC2CCCC2)nc(SCc2csc(-c3ccc(Cl)cc3)n2)nc1-c1ccc2c(c1)OCO2`: below 80%.
Next, `COc1ccc(-c2nc(SCc3coc(-c4cccc(F)c4)n3)nc(N)c2C#N)cc1`: below 80%.
Regarding `N#Cc1c(N)nc(SCc2csc(-c3ccccc3)n2)nc1-c1ccc2c(c1)OCO2`, the inhibition is above 80%.
Turning to `N#Cc1c(N)nc(SCc2csc(-c3cccc(F)c3)n2)nc1-c1ccc2c(c1)OCO2`, the inhibition is above 80%.
In the case of `CC(=O)Nc1ccc(-c2nc(SCc3cccc(CCC(=O)N4CCN(C)CC4)n3)nc(N)c2C#N)cc1`, the inhibition was below 80%.
In turn, `N#Cc1c(N)nc(SCc2csc(-c3ccc(I)cc3)n2)nc1-c1ccc2c(c1)OCO2` showed an inhibition above 80%.
In turn, `N#Cc1c(N)nc(SCc2nc(-c3ccc(Cl)cc3)sc2Br)c(C#N)c1-c1ccc2c(c1)OCO2` registered an inhibition above 80%.
`N#Cc1c(N)nc(SCc2csc(-c3ccc(Br)cc3)n2)c(C#N)c1-c1ccc(O)cc1`: the inhibition was above 80%.
As for `Cc1ccc(-c2nc(CSc3nc(N)c(C#N)c(-c4ccc(O)cc4)c3C#N)cs2)cc1`, the figure is above 80%; as for `CN(C)c1ccc(-c2nc(SCc3csc(-c4ccc(Cl)cc4)n3)nc(N)c2C#N)cc1`, above 80%; as for `N#Cc1c(-c2ccc3c(c2)OCO3)cc(SCc2csc(-c3ccc(Cl)cc3)n2)nc1NC1CC1`, above 80%.
As for `COc1ccc(-c2c(C#N)c(N)nc(SCc3csc(-c4cccc(F)c4)n3)c2C#N)cc1`, the inhibition was above 80%.
`N#Cc1c(N)nc(SCc2csc(-c3cccc(Cl)c3)n2)nc1-c1ccc2c(c1)OCO2` yielded an inhibition above 80%.
As for `N#Cc1c(N)nc(SCc2csc(N3CCOCC3)n2)nc1-c1ccc2c(c1)OCO2`, the figure is above 80%; as for `N#Cc1c(N)nc(SCc2csc(-c3ccc(F)cc3)n2)nc1-c1ccc2c(c1)OCO2`, above 80%.
Next, `COc1ccc(-c2nc(SCc3csc(-c4ccc(Cl)cc4)n3)nc(N)c2C#N)cc1`: below 80%.
`N#Cc1c(N)nc(SCc2ccccc2[N+](=O)[O-])nc1-c1ccccc1` registered an inhibition above 80%.
Take `N#Cc1c(N)nc(SCc2csc(-c3ccccc3F)n2)c(C#N)c1-c1ccc(O)cc1`: the inhibition was above 80%.
On to `N#Cc1c(N)nc(SCc2csc(-c3ccc(F)cc3)n2)c(C#N)c1-c1ccc(O)cc1`, for which the inhibition is above 80%.
Next, `N#Cc1c(N)nc(SCc2csc(-c3ccc(Cl)cc3)n2)nc1-c1ccccc1`: above 80%; `N#Cc1c(N)nc(SCc2coc(-c3ccc(F)cc3)n2)nc1-c1ccc2c(c1)OCO2`: above 80%.
`COc1ccc(-c2c(C#N)c(N)nc(SCc3coc(-c4ccc(Cl)cc4)n3)c2C#N)cc1` came in with an inhibition above 80%.
Next, `N#Cc1c(N)nc(SCc2csc(-c3cccc(F)c3)n2)c(C#N)c1-c1ccc(O)cc1`: above 80%.
As for `CC(C)CCNc1nc(SCc2csc(-c3ccc(Cl)cc3)n2)nc(-c2ccc3c(c2)OCO3)c1C#N`, the figure is below 80%.
As for `CN(C)CCNc1nc(SCc2csc(-c3ccc(Cl)cc3)n2)nc(-c2ccc3c(c2)OCO3)c1C#N`, the figure is below 80%; as for `COc1ccc(-c2c(C#N)c(N)nc(SCc3csc(-c4ccccc4F)n3)c2C#N)cc1`, above 80%.
Compound `CC(C)(C)Nc1nc(SCc2csc(-c3ccc(Cl)cc3)n2)nc(-c2ccc3c(c2)OCO3)c1C#N` came in with an inhibition below 80%.
For the compound `N#Cc1c(N)nc(SCc2csc(-c3ccc(Cl)c(Cl)c3)n2)c(C#N)c1-c1ccc(O)cc1`, the inhibition is above 80%.
Next, `N#Cc1c(NCCCCc2ccccc2)nc(SCc2csc(-c3ccc(Cl)cc3)n2)nc1-c1ccc2c(c1)OCO2`: below 80%.
`N#Cc1c(N)nc(SCc2csc(-c3ccccc3)n2)c(C#N)c1-c1ccc(O)cc1` yielded an inhibition above 80%.
Next, `Cc1ccc(-c2nc(CSc3nc(N)c(C#N)c(-c4ccc5c(c4)OCO5)n3)cs2)cc1`: above 80%.
As for `CCC(CC)Nc1nc(SCc2csc(-c3ccc(Cl)cc3)n2)nc(-c2ccc3c(c2)OCO3)c1C#N`, the figure is below 80%; as for `CC(=O)Nc1ccc(-c2nc(SCc3csc(-c4ccc(Cl)cc4)n3)nc(N)c2C#N)cc1`, above 80%.
For the compound `CC(=O)Nc1ccc(-c2nc(SCc3cccc(CCC(=O)N4CCN(CCN(C(C)C)C(C)C)CC4)n3)nc(N)c2C#N)cc1`, the inhibition is below 80%.
As for `N#Cc1c(N)nc(SCc2nc(-c3ccc(Cl)cc3)sc2Cl)c(C#N)c1-c1ccc2c(c1)OCO2`, the figure is above 80%; as for `N#Cc1c(N)nc(SCc2csc(-c3cccc(Cl)c3)n2)c(C#N)c1-c1ccc(O)cc1`, above 80%; as for `CCNc1nc(SCc2csc(-c3ccc(Cl)cc3)n2)cc(-c2ccc3c(c2)OCO3)c1C#N`, above 80%.
Next, `N#Cc1c(N)nc(SCc2csc(-c3ccc(Cl)cc3)n2)nc1-c1ccc(OC(F)(F)F)cc1`: above 80%; `N#Cc1c(N)nc(SCc2csc(-c3ccc([N+](=O)[O-])cc3)n2)nc1-c1ccc2c(c1)OCO2`: above 80%.
As for `N#Cc1c(N)nc(SCc2coc(-c3ccc(F)cc3)n2)c(C#N)c1-c1ccc(O)cc1`, the figure is above 80%; as for `CNc1nc(SCc2csc(-c3ccc(Cl)cc3)n2)cc(-c2ccc3c(c2)OCO3)c1C#N`, above 80%.
For `N#Cc1c(N)nc(SCc2csc(-c3ccc4c(c3)OCO4)n2)nc1-c1ccc2c(c1)OCO2`, the inhibition is above 80%.
`CC(C)Nc1nc(SCc2csc(-c3ccc(Cl)cc3)n2)nc(-c2ccc3c(c2)OCO3)c1C#N` had an inhibition below 80%.
In turn, `N#Cc1c(N)nc(SCc2coc(-c3cccc(F)c3)n2)c(C#N)c1-c1ccc(O)cc1` yielded an inhibition above 80%.
In turn, `CC(=O)Nc1ccc(-c2nc(SCc3cccc(CCC(=O)N(C)CCN(C)C)n3)nc(N)c2C#N)cc1` returned an inhibition below 80%.
The compound `Cc1ccc(-c2nc(SCc3csc(-c4ccc(Cl)cc4)n3)nc(N)c2C#N)cc1` registered an inhibition below 80%.
Compound `N#Cc1c(NCC(c2ccccc2)c2ccccc2)nc(SCc2csc(-c3ccc(Cl)cc3)n2)nc1-c1ccc2c(c1)OCO2` had an inhibition below 80%.
Turning to `N#Cc1c(N)nc(SCc2csc(-c3ccc(C(F)(F)F)cc3)n2)nc1-c1ccc2c(c1)OCO2`, the inhibition was above 80%.
For the compound `CCNCCN1CCN(C(=O)CCc2cccc(CSc3nc(N)c(C#N)c(-c4ccc(NC(C)=O)cc4)n3)n2)CC1`, the inhibition was below 80%.
Next, `N#Cc1c(N)nc(SCc2csc(-c3ccccc3Cl)n2)c(C#N)c1-c1ccc(O)cc1`: above 80%; `N#Cc1c(N)nc(SCc2csc(-c3ccccc3F)n2)nc1-c1ccc2c(c1)OCO2`: above 80%.
As for `N#Cc1c(NCc2ccccc2)nc(SCc2csc(-c3ccc(Cl)cc3)n2)nc1-c1ccc2c(c1)OCO2`, the figure is below 80%.
In turn, `N#Cc1c(N)nc(SCc2csc(-c3ccccc3Cl)n2)nc1-c1ccc2c(c1)OCO2` showed an inhibition above 80%.
As for `N#Cc1c(N)nc(SCc2ccccc2[N+](=O)[O-])nc1-c1ccc2c(c1)OCO2`, the figure is above 80%.
Turning to `N#Cc1c(N)nc(SCc2coc(-c3ccc(Cl)cc3)n2)c(C#N)c1-c1ccc(O)cc1`, the inhibition is above 80%.
Next, `C#CCNc1nc(SCc2csc(-c3ccc(Cl)cc3)n2)cc(-c2ccc3c(c2)OCO3)c1C#N`: above 80%; `N#Cc1c(NCCc2ccccc2)nc(SCc2csc(-c3ccc(Cl)cc3)n2)nc1-c1ccc2c(c1)OCO2`: below 80%; `N#Cc1c(N)nc(SCc2cscn2)nc1-c1ccc2c(c1)OCO2`: above 80%.
As for `N#Cc1c(N)nc(SCc2csc(-c3ccc(Cl)cc3)n2)nc1-c1ccc(OCCO)cc1`, the figure is above 80%; as for `CCOc1ccc(-c2nc(SCc3csc(-c4ccc(Cl)cc4)n3)nc(N)c2C#N)cc1`, below 80%; as for `N#Cc1c(N)nc(SCc2csc(N3CCOCC3)n2)c(C#N)c1-c1ccc(O)cc1`, above 80%.
The compound `N#Cc1c(N)nc(SCc2csc(C3CCCCC3)n2)nc1-c1ccc2c(c1)OCO2` showed an inhibition above 80%.
`CCCCNc1nc(SCc2csc(-c3ccc(Cl)cc3)n2)nc(-c2ccc3c(c2)OCO3)c1C#N` had an inhibition below 80%.
Next, `N#Cc1c(N)nc(SCc2coc(-c3ccc(Cl)cc3)n2)nc1-c1ccc2c(c1)OCO2`: above 80%; `COc1ccc(-c2nc(CSc3nc(N)c(C#N)c(-c4ccc5c(c4)OCO5)n3)cs2)cc1`: above 80%.
For `COc1ccc(-c2nc(CSc3nc(N)c(C#N)c(-c4ccc(O)cc4)c3C#N)cs2)cc1`, the inhibition was above 80%.
As for `N#Cc1c(NCCCc2ccccc2)nc(SCc2csc(-c3ccc(Cl)cc3)n2)nc1-c1ccc2c(c1)OCO2`, the figure is below 80%; as for `N#Cc1c(N)nc(SCc2csc(-c3ccc(Br)cc3)n2)nc1-c1ccc2c(c1)OCO2`, above 80%.
Regarding `N#Cc1c(N)nc(SCc2csc(-c3ccc(Cl)cc3)n2)nc1-c1ccc(O)cc1`, the inhibition is above 80%.
`N#Cc1c(NC2CCCCC2)nc(SCc2csc(-c3ccc(Cl)cc3)n2)nc1-c1ccc2c(c1)OCO2` showed an inhibition below 80%.
Next, `CC(=O)Nc1ccc(-c2nc(SCc3cccc(CCC(=O)N4CCN(CCCCN5CCC(C)CC5)CC4)n3)nc(N)c2C#N)cc1`: below 80%.
